Results as given in patent publication US20020102533A1, “Hepatitis C protease exosite for inhibit or design” (priority 2000, published 2002).
Entries after “also recorded” stand apart in the source; their conditions may differ. Where a SMILES comes first, the peptide text is derived from it. [ ]: non-standard residue; d: D form. Dip = N[C@H](C(=O)O)C(c1ccccc1)c1ccccc1; Cha = N[C@@H](CC1CCCCC1)C(=O)O

Experiments:
HCV protease 2A = molecular target: T1, HCV protease 2A (Hepatitis C virus genotype 2a, UniProt P26660); experiment: HCV protease type 2a, 13-mer substrate; assay type: biochemical
T1 construct: the catalytic domains of types 1b, 1J and 2a have also been examined
Description: It is understood that other forms of HCV protease may be used in an assay for the determination of inhibitors. The present invention has disclosed the 1A form of HCV protease, however, the catalytic domains of types 1b, 1J and 2a have also been examined, as well as, the full-length version of form 1b. Evidence for the exosite exists in each case. Activation by Q9692 follows the trend of activation by NS4a. Forms of the enzyme that are more sensitive to NS4a display greater stimulation by Q9692 than forms that are less sensitive. In rank order sensitivity is 1J, 1B, 1A, and 2A. The catalytic activity of 2A toward the 9-mer substrate is enhanced by only 1.5-fold at 4 μM Q9692 and becomes inhibited by Q9692 at concentrations greater than 20 μM. […] Use of alternative forms of the HCV protease is relevent to development of an inexpensive and easy continous assay.

[1] = molecular target: T2, HCV NS3 protease, genotype 1a (Hepatitis C virus genotype 1a, UniProt P26664); assay type: biochemical; conditions: P6-P3′ amide substrate
T2 construct: NS3 protease catalytic domain (amino acids 1 to 192); MGAQH expression leader (5 aa), or alternatively the 15 aa His tag […]; made in house; host or cells: E. coli BL21 (DE3)
Experimental: (§1) Endpoint HPLC based HCV protease assay: HCV protease (5 nM) was incubated in 50 mM Tris pH 7.5, 0.1% maltoside, 5 mM DTT and appropriate amounts of glycerol, NS4A peptide, and substrate. Routine assays were 100 μl in volume containing 15% or 50% glycerol, 5.0 μM NS4A peptide and 5.0 μM substrate. Reactions were run at room temperature (˜22° C.) and quenched by the addition of 4 μl of 10% TFA before 10% of the substrate was consumed. Incubation times were 20 minutes for the ester substrate (Peptide Substrate A) and 80 minutes for the P6-P7′ amide substrate (Peptide Substrate B). […] Incubation times were 90 min. Samples, 50 μl, were injected onto an Hewlett Packard 1090 Liquid Chromatograph containing a Dynamax-60A C18 column. The column was eluted with a linear gradient from 10% acetonitrile to 45% acetonitrile in water. All solvents contained 0.1% TFA. A flow rate of 1 ml/min was used. […] The product peaks were detected by fluorescence excitation at 350 nm and emission at 500 nm.
Comparison of the effects of Q9692 on the hydrolysis of a P6-P3′ ester substrate (FIG. 2A) and a P6-P7′ substrate (FIG. 2B) and P6-P3′ amide substrate (FIG. 2C) were determined. […] Hydrolysis products were quantitated by measuring fluorescent peak areas following HPLC and detection by excitation at 350 nm and measuring emission at 500 nm. […]

[2] = molecular target: T2, HCV NS3 protease, genotype 1a; assay type: biochemical
Experimental: as §1
Footnote a for Table 1 references the assay condiditions: 1) Substrate A=P6-P3′, HCV protease (4.0 nM) was incubated with various concentrations of truncated analogs of Q9692 in 50 mM Tris buffer, pH 7.0, 15% glycerol, 0.1% maltoside, 5 mM DTT and 10 μM NS4A peptide in a 96-well microtiter plate at room temperature. After 15 minutes catalysis was initiated by the addition of Ac-D-E-D(EDANS)-E-E-Abuψ[COO]-A-S-K(DABCYL)—NH2 (final concentration 5.0 μM in a total reaction volume of 200 μl). Enzymatic activity was monitored by measuring the increase in fluorescence with time on a Perkin Elmer LS50B luminescence spectrometer (excitation 350 nm, emission 500 nm, both slits 10 nm). […] Assays were 100 μl in volume, reactions were run at room temperature (˜22 C) for 80 minutes (<10% of the substrate was consumed). The addition of 4 μl of 10% TFA quenched the reactions. Quantitation of hydrolysis products was determined by measuring fluorescent peak areas following HPLC. Products were detected by excitation at 350 nm and measuring emission at 500 nm. Aliquots (50 μl) of quenched enzymatic reactions were injected on an Hewlett Packard 1090 HPLC equipped with a ¼ inch Dynamex 60A C18 column. A linear gradient from 10% acetonitrile:H2O to 45% acetonitrile:H2O was run over a period of 15 min at a flow rate of 1.0 ml/min. All solvents contained 0.1% TFA.
Comparison of the effects of Q9692 on the hydrolysis of a P6-P3′ ester substrate (FIG. 2A) and a P6-P7′ substrate (FIG. 2B) and P6-P3′ amide substrate (FIG. 2C) were determined. For substrates A and B1 Concentrations of Q9692 are 0 (circles), 1 μM (squares), 2 μM (diamonds) and 4 μM (triangles). Assay conditions: HCV protease (5 nM) was incubated in 50 mM Tris buffer at pH 7.0, 15% glycerol, 0.1% maltoside, 5 mM DTT, 10 μM NS4A peptide, and specified concentration of substrate. Assays were 100 μl in volume and reactions were run at room temperature (22 C) and quenched by the addition of 4 μl of 10% TFA before 10% of the substrate was consumed. Incubation times were 20 minutes for the ester substrate and 80 minutes for the amide substrate. Hydrolysis products were quantitated by measuring fluorescent peak areas following HPLC and detection by excitation at 350 nm and measuring emission at 500 nm. Aliquots (50 μl) of quenched enzymatic reactions were injected on an Hewlett Packard 1090 HPLC equipped with a ¼ inch Dynamex 60A C18 column.

HCV protease (NS3) = molecular target: T3, HCV protease (NS3) (Hepatitis C virus genotype 1a, UniProt P26664); assay type: binding
T3 construct: NS3 protease catalytic domain (amino acids 1 to 192); MGAQH expression leader (5 aa), or alternatively the 15 aa His tag MRGSHHHHHHMGAQH; made in house; host or cells: E. coli BL21 (DE3)
Experimental: Intrinsic fluorescence studies: Assays were conducted in 0.5 ml fluorescent cuvettes (0.4 ml total volume). […] Fluorescence spectra were obtained by exiting at 280 nm (10 nm slit) and scanning the emission profile from 300 to 400 nm (10 nm slit) at 1 nm s^−1.
Fluorescence spectrum of HCV protease (0.45 μM) in 50 mM Tris buffer, pH 7.0, containing 15% glycerol, and 0.10% maltoside were measured over a range of 300-400 nm using an excitation wavelength of 280 nm. Both excitation and emission slit widths were 10 nm and the scan rate was 1.0 nm sec^−1.

CC(=O)N[C@@H](CC(=O)O)C(=O)N[C@@H](CCC(=O)O)C(=O)N[C@H](C(=O)N[C@@H](CCC(=O)O)C(=O)N[C@@H](CC1CCCCC1)C(=O)N[C@@H](CS)C(=O)O)C(c1ccccc1)c1ccccc1 [Q9692, Ac-Asp-Glu-Dpa-Glu-Cha-Cys—OH] (Ac-DE[Dip]E[Cha]C-OH)
Ki (HCV protease 2A): ~250 nM | inhibition pattern [1]: mixed inhibition | Dixon plots of 1/V versus Q9717 concentration ([2]; 5 μM substrate spanning P6-P7′): intersecting lines | mode of action ([2]; P6-P7′ substrate, double reciprocal plots): competitive inhibitor | (S = P6-P7′) Inhibition (+) / Activation (−) ([2]; substrate B): + | further increase in intrinsic fluorescence (HCV protease (NS3); 5.0 μM added after 12.5 μM NS4a): 70% | effect on fluorescence spectrum (HCV protease (NS3); in the absence of NS4a): little effect | effect on intrinsic fluorescence (HCV protease (NS3); in the presence of NS4a): near doubling of intrinsic fluorescence; also recorded: nearly doubles the intrinsic fluorescence; also recorded: large increase in fluorescence
